Laboratory results taken from ChEMBL document CHEMBL1154198, “Chemical genetics of Plasmodium falciparum” (Nature, 2010).

Legend:
Plasmodium falciparum [1] = experiment: ST_JUDE: Plasmodium falciparum 3D7 EC50 (uM) as measured by SYBR green dye; format: functional, organism-based
Plasmodium falciparum [2] = experiment: ST_JUDE: Plasmodium falciparum K1 EC50 (uM) as measured by SYBR green dye; format: functional, organism-based

Structure (SMILES) | EC50 (Plasmodium falciparum [1]) | EC50 (Plasmodium falciparum [2])
O=C(Nc1ccc(Br)cc1)Nc1cccc(Cl)c1 | > 15 µM | 5.49 µM
COc1ccc2nc(C)cc(Nc3ccc(Cl)c(Cl)c3)c2c1 | 1.14 µM | 4.84 µM
CCOc1ccc(Nc2nc(N)c3ccccc3n2)cc1 | 3.23 µM | > 15 µM
COCCCNc1nc2cc(OC)c(OC)cc2c2nc(-c3ccccc3)nn12 | 0.0855 µM | > 15 µM
Oc1ccc(Cl)cc1Nc1nc(C(F)(F)F)nc2ccccc12 | 1.2 µM | 0.638 µM
O=C(Cc1ccccc1)N1CCOc2c(cc(-c3csc4ccccc34)cc2OCCc2ccccn2)C1 | 1.63 µM | 0.762 µM
O=C(Nc1ccccc1Cl)c1cc2ccccc2cc1O | > 15 µM | 0.547 µM
CC(=O)N(C1=C(N2CCCCC2)C(=O)c2ccccc2C1=O)c1ccc(F)cc1 | 2.72 µM | 3.89 µM
CCSCCN1C(=O)CSC1c1cnccc1-c1ccc(Br)cc1 (centres undefined) | 4.91 µM | > 15 µM
COC(=O)c1ccc(NC(=O)CN(Cc2ccc(Cl)cc2)S(=O)(=O)c2ccccc2)cc1 | 7.32 µM | 5.1 µM
CCN(CC)S(=O)(=O)c1ccc(C(=O)NNc2nc3c(OC)ccc(OC)c3s2)cc1 | > 15 µM | 3.93 µM
CCCCCCOC(=O)c1[nH]c2c(c1C)C(=O)CC(c1ccco1)C2 (centres undefined) | 2.52 µM | 2.03 µM
Cc1ccc2ccc(C(Nc3ccccn3)c3ccncc3)c(O)c2n1 (centres undefined) | 6.5 µM | > 15 µM
CCCO/C(O)=C1\C(C)=NC2=C(C(=O)CC(c3ccccc3)C2)C1c1cc(Cl)c(O)c(OC)c1 (centres undefined) | 3.35 µM | 2.88 µM
CCOc1cccc2sc(N(Cc3cccnc3)C(=O)C3CCCCC3)nc12 | 3.04 µM | 2.23 µM
COc1ccccc1NC(=O)CN1CCN(C(=O)c2ccco2)CC1 | 2.84 µM | 4.84 µM
CCN(CC)CCn1c(=N)n(CC(O)COc2ccccc2C)c2ccccc21 (centres undefined) | 4.06 µM | 4.48 µM
COC(=O)c1cn(NC(=O)c2cccc(F)c2)c(=O)c2ccccc12 | 6.66 µM | > 15 µM
Cc1ccc2ccc(C(Nc3ccccn3)c3cccc(Br)c3)c(O)c2n1 (centres undefined) | > 15 µM | 4.78 µM
O=C(Nc1c2c(nn1-c1ccc([N+](=O)[O-])cc1)CSC2)c1ccc(C(=O)c2ccccc2)cc1 | > 15 µM | 4.08 µM
O=C(NCCc1ccncc1)Nc1ccc([N+](=O)[O-])cc1 | > 15 µM | > 15 µM

Structure (SMILES) | EC50 (Plasmodium falciparum [1]) | EC50 (Plasmodium falciparum [2])
Cc1ccc(/C=C2\C(=O)NC(=O)N(c3ccc(Br)cc3)C2=O)cc1[N+](=O)[O-] | 4.47 µM | 5.16 µM
CN1CCN(c2ccc(NC(=O)c3cccc(I)c3)cc2Cl)CC1 | 7.44 µM | > 15 µM
CCc1cc(Br)ccc1NC(=O)Nc1ccc([N+](=O)[O-])cc1 | > 15 µM | > 15 µM
C#CCOc1ccc(C2C(C#N)=C(N)Oc3c2ccc2ccccc32)cc1OC (centres undefined) | 0.414 µM | 4.08 µM
COCCN1C(=O)c2ccccc2C(C(=O)Nc2ccc(OC)c(Cl)c2)C1c1cccs1 (centres undefined) | 2.01 µM | 2.48 µM
Cc1cccc(NS(=O)(=O)c2cc3c4c(c2)CCN4C(=O)CC3)c1 | > 15 µM | > 15 µM
CC[N+](C)(CC)CCCOc1ccc2c(c1)C(=O)c1cc(OCCC[N+](C)(CC)CC)ccc1-2 | 0.655 µM | 0.413 µM
CCOC(=O)C1=C(c2ccccc2)N=c2s/c(=C\c3cccc(O)c3)c(=O)n2C1c1cccc(OC)c1OC (centres undefined) | 3.26 µM | 2.18 µM
COc1ccc(S(=O)(=O)/N=C2/C=C(Sc3nc[nH]n3)C(=O)c3ccccc32)cc1 | 1.94 µM | 2.34 µM
O=C1c2ccccc2C(=O)c2cc(S(=O)(=O)N(CCO)CCO)ccc21 | 5.89 µM | 3.21 µM
COc1ccc(C2C(C#N)=C(N)Oc3c2ccc2ccccc32)cc1OC (centres undefined) | 1.45 µM | 8.61 µM
COCCn1c(SCC(=O)Nc2cc(C(F)(F)F)ccc2Cl)nc2c(c1=O)SC(C)C2 (centres undefined) | > 15 µM | 0.568 µM
CSc1cccc(NC(=O)Cn2c(C)c(C=O)c3ccccc32)c1 | 4.56 µM | 4.29 µM
CS(=O)(=O)Nc1ccc2c(c1)CCCN2C(=O)c1cccs1 | > 15 µM | 7.55 µM
CCCO/C(O)=C1\C(C)=NC2=C(C(=O)CC(c3ccccc3OC)C2)C1c1ccc([N+](=O)[O-])cc1 (centres undefined) | 0.759 µM | 1.15 µM
Cc1ccccc1OCC(O)Cn1c(=N)n(CCN2CCCCC2)c2ccccc21 (centres undefined) | 4.76 µM | 5.4 µM
O=S(=O)(/N=C(\Nc1ccc(Br)cc1)c1ccccc1)c1ccccc1 | > 15 µM | > 15 µM
C=CCNC(=S)N1CCc2cc(OC)c(OC)cc2C1c1ccccc1 (centres undefined) | 3.85 µM | 3.73 µM
CCOC(=O)N1CCC(NC(=S)Nc2ccc(C(C)(C)C)cc2)CC1 | 9.44 µM | 2.64 µM
Cc1cccc(CN2C(=O)/C(=C\c3ccc(C(=O)N4CCC(N5CCCCC5)CC4)cc3)Oc3ccccc32)c1 | 4.03 µM | > 15 µM
COc1cc2c(cc1OC)C(C(=O)Nc1ccc(C(C)C)cc1)C(c1cccs1)N(C)C2=O (centres undefined) | > 15 µM | 3.45 µM

Structure (SMILES) | EC50 (Plasmodium falciparum [1]) | EC50 (Plasmodium falciparum [2])
CCOC(=O)c1ccc2nc(C)cc(Nc3ccc(OC)cc3)c2c1 | 2.86 µM | > 15 µM
CC1CN(C(=O)c2ccc(I)cc2)CC(C)O1 (centres undefined) | 2.73 µM | 1.52 µM
COc1ccc(C)cc1S(=O)(=O)Nc1ccc(Nc2nc(C)cc(N3CCCC3)n2)cc1 | 0.759 µM | > 15 µM
Fc1ccc(Nc2nc(NCCN3CCOCC3)nc3c2cnn3-c2ccccc2)cc1 | > 15 µM | 6.75 µM
COc1ccc(Cl)cc1NC(=O)CSc1nc(-c2ccccc2Cl)ns1 | 1.43 µM | 2.66 µM
CC(C)CC(=O)NC(c1ccc(Cl)cc1Cl)c1ccc2cccnc2c1O (centres undefined) | > 15 µM | > 15 µM
CCC(C)NC(=O)N1CCC(n2nccc2NC(=O)CCCc2ccccc2)CC1 (centres undefined) | > 15 µM | > 15 µM
COc1ccc(NC(=O)c2c(-c3c(Cl)cccc3Cl)noc2C)c(OC)c1 | > 15 µM | 5.43 µM
CCN(CC)c1cc(C)nc(Nc2ccc(NS(=O)(=O)c3cc(C)ccc3OC)cc2)n1 | 4.17 µM | > 15 µM
CCCCN(CC)CCNC(=O)c1cc2c(-c3ccccc3F)nn(C)c2s1 | 2.07 µM | > 15 µM
O=C1C2CC=C(Cl)CC2C(=O)N1CCCCO (centres undefined) | 3.32 µM | 1.47 µM
COC(=O)c1ccc(Nc2nc(NCc3ccco3)c3ccccc3n2)cc1 | 4.89 µM | 8.54 µM
COc1ccc(-c2nn(C)c3sc(C(=O)Nc4cccc(Cl)c4)cc23)cc1OC | > 15 µM | 6.94 µM
COc1cc(C(=O)NCC(C)Oc2cccc(CN(C)Cc3cscn3)c2)cc(OC)c1OC (centres undefined) | > 15 µM | > 15 µM
CC(=O)N(C1=C(N(C)C)C(=O)c2ccccc2C1=O)c1cccc(I)c1 | 0.0566 µM | 0.0862 µM
C=CC[n+]1c(C)n(N)c2ccccc21 | > 15 µM | > 15 µM
Cc1ccc(-c2nc3ccccc3o2)cc1NC(=O)C(Cl)(Cl)Cl | 4.07 µM | 1.7 µM
Cc1ccc(CN2CCN(Cc3ccc(OCCO)cc3)CC2CCO)o1 (centres undefined) | > 15 µM | > 15 µM
C#CCOc1ccc(C2C(C#N)=C(N)Oc3cc(O)ccc32)cc1OCC (centres undefined) | > 15 µM | 10.2 µM
CCCC(=O)NC(c1ccc(Cl)cc1Cl)c1ccc2cccnc2c1O (centres undefined) | 2.24 µM | 3.57 µM
